Data reported in patent US9446147B2, “Membrane stabilizing compositions and methods” (The Ohio State University, priority 2011, dated 2016).

Assays:
[1] = lyophilization and rehydration of calcein-loaded LUVs (contents loss, DLS, cryo-TEM); format: physicochemical; conditions: used in place of cholesterol glycopolymer 8 in DPPC or hydrogenated ePC LUVs
Procedure: (§1) The anhydrobiotic membrane preservation properties of the trehalose polymers on supported lipid bilayers (SLBs) were tested. […] Moreover, lyophilized calcein-loaded trehalose-polymer vesicles could be rehydrated without contents loss and maintenance of vesicle size distribution. The cryo-preservative effects of trehalose and other sugars on proteins and membrane structures has been known for some time, though high solution concentrations are required; here we find that preservative properties at mole ratios of about 10% to about 30%. This preservative property permits long-term anhydrous storage of reagents without compromising therapeutic effect. Thus, membrane-anchored polysaccharides may be a useful biotechnology tool for production of systemic drug carriers that are stable to attack from serum proteins, dehydration and freeze-drying.
Sugar solutions (10:1 sugar:lipid) are known to protect LUVs from contents loss and fusion upon lyophilization and rehydration. It was find that covalent presentation of polymeric trehalose on multiple lipid anchors confers significant membrane anhydrobiotic and cryo-protection at sugar:lipid ratios of 0.1-0.3. […] LUVs containing phospholipid glycodimer 7 and phospholipid glycopolymer 9 readily deposited, possibly by virtue of higher membrane fluidity.

[2] = dehydration-rehydration of supported lipid bilayers (SLBs), microscopy and FRAP; format: physicochemical; conditions: supported lipid bilayers on glass
Procedure: as §1
FIGS. 10A and 10B are photomicrographs of supported lipid bilayers containing (A) phospholipid dimer 7 or (B) phospholipid polymer. The mole percent is as indicated. The top rows of (A) and (B) show freshly formed SLBs; whereas the bottom rows show SLBs after drying and rehydration. The photos were taken at 10× magnification and the scale bar is 100 μm. FIGS. 10C and 10D show FRAP containing SLBs with 10% phospholipid polymer before and after dehydration, respectively. These photos were taken at 40× magnification and the scale bar is 40 μm.

[3] = contents release assay of calcein-loaded vesicles in fetal bovine serum; format: in vitro ADME; conditions: vesicles of 80% DPPC and 20% dimer
Description: […] Vesicle stabilization by the glycolipid derivatives was strongly affected by degree of oligomerization and solubility. […] Though there is clearly an advantage to structures larger than a dimer, larger oligomer or polymers may be limited by their ability to incorporate into the lipid membrane. Thus, it was difficult to achieve mole percent incorporation levels higher than 10% for phospholipid glycopolymer 9 and 30% for cholesterol glycopolymer 8.

contents loss and fusion after lyophilization and rehydration [1] | contents loss upon exposure to serum [3] | Compound | protection of SLBs from delamination on drying/rehydration [2]
total contents loss and extensive fusion |  | CC(C)CCC[C@@H](C)[C@H]1CC[C@H]2[C@@H]3CC=C4C[C@@H](O)CC[C@]4(C)[C@H]3CC[C@]12C [cholesterol] | 
 | greatly minimized | trehalose cholesterol thioglycolate thioether dimer | protect supported lipid bilayers from delamination upon drying
